Assay type in all cases: cell-based
For one assay, the system named is staphylococci. In words: Effect of ethyl oxaloacetate on growth (FIG. 8). Particulars: 5 mg/l in FIG. 8. The source says:
Ethyl oxaloacetate is described for its stimulatory effect on the growth of numerous species (Pelczar M. J. and Brown J. H. (1951) Synthetic culture media for reference use in dairy bacteriology, J. Milk Food Technol., 14: 90-91 and 97).

In another assay the test system is enterococci. In words: Effect of medium constituents and peptides on growth of enterococci. The source says:
It is moreover known to affect the activity of the sulfamides and trimethoprim family (Then R. et al., Mecanisme moleculaire de la bactericidie; sulfamides et trimethoprime [Molecular mechanism of bactericidal activity; sulfamides and trimethoprim]. Bactericidie 1990, Editions Maloine, Paris).
The purine and pyrimidine bases can be supplied in several forms, that is to say in the form of precursors, of free bases, of nucleosides or of nucleotides. […] The proportions between purines and pyrimidines were defined in relation to those described for the synthesis of RNA by Neidhart (Neidhart et al. (1990) Physiology of the bacterial cell. A molecular approach. Sinauer associates, inc. U.S.A.), taking account of the absence of thymidine, that is to say purines/pyrimidines in a ratio of between 1.5 and 2.2 and advantageously of 1.8. The final concentrations were then optimized essentially to satisfy the growth of the staphylococci and of the enterococci.

The subject of assay [1] is Enterococcus hirae and Enterococcus faecium. The assay can be described thus: Effect of tetrapeptide on growth (FIG. 14). Particulars: 50 or 100 mg/l of peptide in FIG. 14. As to the method: Curve a corresponds to the results obtained with the medium of the invention without addition of the abovementioned peptide, nor addition of constituent free amino acids of this peptide. Curve b illustrates the results obtained with the addition of amino acids Ala, Gly, Ser, GLu respectively at concentrations of 11, 9, 12.5 and 17.5 mg/l. […] Curve d corresponds to the bacterial growth obtained after addition to the medium of 50 mg/l of the peptide. Curve e illustrates the results obtained after addition of 100 mg/l of the same peptide.
Among the peptides tested, only those showing size a less than or equal to 15 amino acids cause a strong increase in the growth.

A further assay concerns Serratia marcescens. In words: Effect of serine concentration on growth (FIG. 1). The settings on record: serine concentration increased by a factor of 10 in IST medium.
In assay [2] the test system is Proteus, Morganella, Providencia and Serratia. The assay can be described thus: Effect of polyamines on growth. The settings on record: preferential concentration 0.75 mg/l. As to the method:
The polyamines are present in the eukaryotic and prokaryotic cells and participate in numerous biological reactions including the synthesis of nucleic acids and of proteins (see Tabor C. W. and Tabor H. (1985) Polyamines in Microorganisms, Microbiol. Rev. 49: 81-99). Putrescine, spermine and spermidine were tested. […] FIG. 7 illustrates the effect of spermidine on the growth of Proteus mirabilis.

In assay [3] the test system is enterococci and streptococci of group B. In words: Effect of lipoic acid on growth (FIG. 6). Particulars: 0.01 mg/l in FIG. 6. The source says: FIG. 6 illustrates the effect of lipoic acid on the growth of Enterococcus faecalis.
Assay [4] relates to non-saccharolytic species, such as Alcaligenes faecalis and Pseudomonas acidovorans. In words: Effect of L-malic acid on growth (FIG. 10). The settings on record: 500 mg/l in FIG. 10. As for the experimental part:
(§1) The carbon sources of the medium of the invention are mainly represented by a sugar, preferably D-glucose, and an organic acid, in particular L-malic acid. D-glucose has been retained, taking account of its utilization by a large number of bacterial species with fermentative or non-fermentative metabolism (Stanier R. Y. et al. (1966) The aerobic Pseudomonas: a taxonomic study. J. Gen. Microbiol. 43: 159-271). Its concentration in the medium of the invention was determined to obtain a biomass close to that obtained with the reference Mueller-Hinton medium. […] The respective concentrations of D-glucose and L-malic acid were determined to correspond to the qualities of Mueller-Hinton.

In another assay the test system is Pseudomonas aeruginosa. In words: Effect of L-malic acid on growth (FIG. 11). The settings on record: 500 mg/l in FIG. 11. As to the method:
FIGS. 11 illustrates the effect of L-malic acid on the growth of Pseudomonas aeruginosa, curve a corresponding to the growth obtained with an IST medium devoid of L-malic acid and curve b after addition of a concentration of 500 mg/l of L-malic acid.
as §1

Ends that are not written are not given here.

From the text for Serratia marcescens: Curve b represents the growth with the IST medium for a concentration of serine increased by a factor of 10. Curve c represents the growth obtained with the Mueller-Hinton medium.
The qualitative and quantitative composition of amino acids was then optimized for the different species in order to obtain growth in conformity with that obtained with the reference Mueller-Hinton medium. […] The final concentrations of amino acids were defined, after having verified their importance on the final biomass, taking account of the biomass obtained in Mueller-Hinton medium.

In the case of ethyl oxaloacetate, in the assay on staphylococci, the growth entry is reported as “allowing the growth of the staphylococci to be increased without inhibiting that of the other species”.
Turning to `Nc1nc2ncc(CNc3ccc(C(=O)N[C@@H](CCC(=O)O)C(=O)O)cc3)nc2c(=O)[nH]1` [Folic acid, folic acid], the “importance for the growth of enterococci” value in the assay with enterococci (E. faecalis, E. faecium and E. hirae, 0.005 mg/l in FIG. 5) is “importance for the growth of enterococci”.
“Ala-Gly-Ser-Glu (AGSE) [Ala-Gly-Ser-Glu (SEQ ID NO: 1)]”: the growth result in assay [1] was “considerable increase in the growth”.
On to `N[C@@H](CO)C(=O)O` [serine], for which the bacterial growth entry with Serratia marcescens is listed as “near to that obtained with Mueller-Hinton medium”.
For `NCCCCNCCCN` [Spermidine, spermidine], the growth entry in assay [2] was “chosen according to the results, especially for the growth of Proteus, Morganella, Providencia and Serratia”.
Consider `O=C(O)CCCCC1CCSS1` (stereo not shown) [lipoic acid], for which the growth entry in assay [3] is “allowing the growth of the enterococci and of the streptococci of group B to be increased to a maximum”.
Regarding `O=C(O)C[C@H](O)C(=O)O` [L-malic acid], the growth entry in assay [4] is recorded as “necessary for the growth of the non-saccharolytic species”; in the assay on Pseudomonas aeruginosa it was “increases the growth of Pseudomonas aeruginosa”.
On to `O=c1[nH]cnc2nc[nH]c12` [hypoxanthine], for which the “base requirements of the enterococci” value in the assay on enterococci (supplied as precursors) was “does not satisfy the base requirements of the enterococci”.
As to ASDAKAYDTEV, the growth result in the assay on enterococci (addition of peptides to the medium) is reported as “interesting results for other strains of Enterococci”.
